Target: T1, Phosphatidylinositol 4,5-bisphosphate 3-kinase catalytic subunit delta isoform (Homo sapiens, UniProt O00329)
T1 sequence (O00329 whole entry): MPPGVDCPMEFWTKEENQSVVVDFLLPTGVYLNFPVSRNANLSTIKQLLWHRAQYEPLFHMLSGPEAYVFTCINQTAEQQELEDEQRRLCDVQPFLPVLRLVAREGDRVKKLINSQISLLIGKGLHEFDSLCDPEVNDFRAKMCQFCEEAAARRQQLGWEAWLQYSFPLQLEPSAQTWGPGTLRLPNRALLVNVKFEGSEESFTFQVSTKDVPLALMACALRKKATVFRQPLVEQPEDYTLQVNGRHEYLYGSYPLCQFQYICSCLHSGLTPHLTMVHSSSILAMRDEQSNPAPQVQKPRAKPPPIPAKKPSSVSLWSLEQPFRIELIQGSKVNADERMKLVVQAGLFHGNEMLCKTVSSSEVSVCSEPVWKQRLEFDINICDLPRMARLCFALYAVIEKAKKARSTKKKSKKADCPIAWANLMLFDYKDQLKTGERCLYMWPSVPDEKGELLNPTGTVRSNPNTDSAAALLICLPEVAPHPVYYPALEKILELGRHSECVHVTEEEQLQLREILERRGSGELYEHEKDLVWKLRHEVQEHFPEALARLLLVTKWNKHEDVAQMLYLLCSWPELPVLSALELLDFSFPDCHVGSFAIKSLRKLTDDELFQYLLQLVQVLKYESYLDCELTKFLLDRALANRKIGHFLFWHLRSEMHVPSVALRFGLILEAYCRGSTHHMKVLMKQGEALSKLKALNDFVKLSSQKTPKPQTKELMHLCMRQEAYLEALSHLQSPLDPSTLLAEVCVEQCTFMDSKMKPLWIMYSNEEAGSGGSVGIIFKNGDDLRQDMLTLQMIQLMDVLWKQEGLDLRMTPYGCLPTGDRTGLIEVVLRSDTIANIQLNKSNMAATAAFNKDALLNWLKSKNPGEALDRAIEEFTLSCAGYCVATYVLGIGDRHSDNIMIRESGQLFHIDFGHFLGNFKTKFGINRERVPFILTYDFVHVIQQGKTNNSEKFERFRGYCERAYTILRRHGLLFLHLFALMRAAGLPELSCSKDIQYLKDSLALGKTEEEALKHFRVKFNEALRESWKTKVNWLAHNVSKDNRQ
Assay: PI3Kdelta Scintillation Proximity A3 Assay
Method: [γ-33P]ATP (10 mCi/mL) was purchased from Perkin-Elmer (Waltham, Mass.). […] PI3Kδ (p110δ/p85α) was purchased from Millipore (Bedford, Mass.). ATP, MgCl2, DTT, EDTA, MOPS and CHAPS were purchased from Sigma-Aldrich (St. Louis, Mo.). Wheat Germ Agglutinin (WGA) YSi SPA Scintillation Beads was purchased from GE healthcare life sciences (Piscataway, N.J.).The kinase reaction was conducted in polystyrene 384-well matrix white plate from Thermo Fisher Scientific in a final volume of 25 μL. Inhibitors were first diluted serially in DMSO and added to the plate wells before the addition of other reaction components. The final concentration of DMSO in the assay was 0.5%. The PI3K assays were carried out at room temperature in 20 mM MOPS, pH 6.7, 10 mM MgCl2, 5 mM DTT and CHAPS 0.03%. Reactions were initiated by the addition of ATP, the final reaction mixture consisted of 20 μM PIP2, 20 μM ATP, 0.2 μCi [γ-33P] ATP, 4 nM PI3Kδ. […] 25 mM EDTA, 400 μM ATP. The final concentration of SPA beads was 1.0 mg/mL. After the plate sealing, plates were shaken overnight at room temperature and centrifuged at 1800 rpm for 10 minutes, the radioactivity of the product was determined by scintillation counting on Topcount (Perkin-Elmer). IC50 determination was performed by fitting the curve of percent control activity versus the log of the inhibitor concentration using the GraphPad Prism 3.0 software.

COc1c(C(C)n2nc(C3C=NNC3)c3c(N)ncnc32)cc(Cl)c(C)c1C1CN(CC#N)C1 (stereo unspecified) [US10376513, Example 126]
IC50: < 10 nM

Reference: BindingDB's records for patent US10376513 (Incyte Holdings Corporation, 2019)
